± gives the expanded uncertainty stated by the source.
Key:
[1] = refractive index (Na D-line) (dimensionless); settings: 298.15 K; 101.33 kPa; Liquid; Standard Abbe refractometry
[2] = Liquid; for vapor or sublimation pressure: Twin ebulliometer

| refractive index [1] | mass density ([2]; 298.15 K, 101.33 kPa) [kg/m3] | vapor or sublimation pressure ([2]; 292.33 K) [kPa] | vapor or sublimation pressure ([2]; 303.83 K) [kPa] | vapor or sublimation pressure ([2]; 311.14 K) [kPa] | vapor or sublimation pressure ([2]; 317.9 K) [kPa] | vapor or sublimation pressure ([2]; 323.09 K) [kPa] | vapor or sublimation pressure ([2]; 326.8 K) [kPa] | vapor or sublimation pressure ([2]; 330.56 K) [kPa] | vapor or sublimation pressure ([2]; 333.94 K) [kPa] | vapor or sublimation pressure ([2]; 337.18 K) [kPa] | vapor or sublimation pressure ([2]; 339.97 K) [kPa] | vapor or sublimation pressure ([2]; 342.3 K) [kPa] | SMILES |
| --- | --- | --- | --- | --- | --- | --- | --- | --- | --- | --- | --- | --- | --- |
| 1.3266 ± 0.0004 | 786.59 ± 0.62 | – | – | – | – | – | – | – | – | – | – | – | CO [methanol] |
| 1.3596 ± 0.0004 | – | 5.59 ± 0.15 | 10.86 ± 0.15 | 16.15 ± 0.16 | 22.84 ± 0.17 | 29.41 ± 0.18 | 35.11 ± 0.19 | 41.76 ± 0.21 | 48.61 ± 0.22 | 56.06 ± 0.24 | 63.2 ± 0.26 | 69.73 ± 0.27 | CCO [ethanol] |
